Patent publication US11613538B2, “Method of inhibiting or reducing a viral infection” (PTC Therapeutics, Inc., priority 2009, dated 2023)

Tested on: hypoxia-induced VEGF production in HeLa cells
Test: cells
Format: cell-based, human
Conditions: Homo sapiens, HeLa

`CC#CCOC(=O)N1CCc2c([nH]c3ccc(Cl)cc23)C1c1ccc(OCC[C@H](O)CO)cc1` (some centres unmarked) [Compound 1176] and `CC(C)(C)COC(=O)N1CCc2c([nH]c3ccc(Cl)cc23)C1c1ccc(OCC[C@H](O)CO)cc1` (some centres unmarked) [Compound 1177] cannot be ordered by EC50: < 8 nM for the first, < 8 nM for the second.

Compared with `O=C(Oc1ccc(Cl)cc1)N1CCc2c([nH]c3ccc(Cl)cc23)C1c1ccc(OCCCNCCO)cc1` (centres unmarked) [Compound 1183], `O=C(Oc1ccc(Cl)cc1)N1CCc2c([nH]c3ccc(Cl)cc23)[C@@H]1c1ccc(OCCCNCCO)cc1` [Compound 1257] is higher in EC50: < 8 nM for the first, 8 to 40 nM for the second.

`O=C(Oc1ccc(Cl)cc1)N1CCc2c([nH]c3ccc(Cl)cc23)C1c1ccc(OCCCN(CCO)CCO)cc1` (centres unmarked) [Compound 1184] and `O=C(Oc1ccc(Cl)cc1)N1CCc2c([nH]c3ccc(Cl)cc23)[C@@H]1c1ccc(OCCCN(CCO)CCO)cc1` [Compound 1258] cannot be ordered by EC50: < 8 nM for the first, < 8 nM for the second.

`CC(C)(C)OC(=O)N1CCc2c([nH]c3ccc(Cl)cc23)C1c1ccc(OCCCn2ccnn2)cc1` (centres unmarked) [Compound 1185] and `CC(C)(C)OC(=O)N1CCc2c([nH]c3ccc(Cl)cc23)[C@@H]1c1ccc(OCCCn2ccnn2)cc1` [Compound 1239] cannot be ordered by EC50: < 8 nM for the first, < 8 nM for the second.

`CC(C)(C)OC(=O)N1CCc2c([nH]c3ccc(Cl)cc23)C1c1ccc(OCCCn2nccn2)cc1` (centres unmarked) [Compound 1186] and `CC(C)(C)OC(=O)N1CCc2c([nH]c3ccc(Cl)cc23)[C@@H]1c1ccc(OCCCn2nccn2)cc1` [Compound 1240] cannot be ordered by EC50: < 8 nM for the first, < 8 nM for the second.

`CC(C)(C)OC(=O)N1CCc2c([nH]c3ccc(Cl)cc23)C1c1ccc(OCCCn2cnnc2)cc1` (centres unmarked) [Compound 1187] and `CC(C)(C)OC(=O)N1CCc2c([nH]c3ccc(Cl)cc23)C1c1ccc(OCCCn2cncn2)cc1` (centres unmarked) [Compound 1188] cannot be ordered by EC50: < 8 nM for the first, < 8 nM for the second.

`CC(C)(C)OC(=O)N1CCc2c([nH]c3ccc(Cl)cc23)C1c1ccc(OCCCCl)cc1` (centres unmarked) [Compound 1189] and `CC(C)OC(=O)N1CCc2c([nH]c3ccc(Cl)cc23)[C@@H]1c1ccc(OCCCO)cc1` [Compound 1252] cannot be ordered by EC50: < 8 nM for the first, < 8 nM for the second.

`Cc1ccc(C(=O)N2CCc3c([nH]c4ccc(Cl)cc34)C2c2ccc(OCCCN3CCOCC3)cc2)cc1` (centres unmarked) [Compound 1190] and `CC(C)C(=O)N1CCc2c([nH]c3ccc(Cl)cc23)C1c1ccc(OCCCN2CCOCC2)cc1` (centres unmarked) [Compound 1193] fall in the same range of EC50: 40 to 200 nM for the first, 40 to 200 nM for the second.

First: COc1ccc(C(=O)N2CCc3c([nH]c4ccc(Cl)cc34)C2c2ccc(OCCCn3cncn3)cc2)cc1 (centres unmarked) [Compound 1191]
Second: Clc1ccc2[nH]c3c(c2c1)CCN(c1ncccn1)C3c1ccc(OCCCn2cncn2)cc1 (centres unmarked) [Compound 1201]
The EC50 of the first is higher: 40 to 200 nM for the first, < 8 nM for the second.

Compared with `CCOC(=O)N1CCc2c([nH]c3ccc(Cl)cc23)C1c1ccc(OC)c(F)c1` (centres unmarked) [Compound 1198], `CC#CCOC(=O)N1CCc2c([nH]c3ccc(Cl)cc23)C1c1ccc(OC)c(F)c1` (centres unmarked) [Compound 1232] is higher in EC50: 8 to 40 nM for the first, 40 to 200 nM for the second.

`Clc1ccc2[nH]c3c(c2c1)CCN(c1ncccn1)C3c1ccc(OCCCn2ccnn2)cc1` (centres unmarked) [Compound 1200] and `OCCCOc1ccc([C@H]2c3[nH]c4ccc(Cl)cc4c3CCN2c2ncccn2)cc1` [Compound 1256] cannot be ordered by EC50: < 8 nM for the first, < 8 nM for the second.

`CCOC(=O)N1CCc2c([nH]c3ccc(Cl)cc23)[C@@H]1c1ccc(OCC[C@H]2COC(C)(C)O2)cc1` [Compound 1202] and `CCOC(=O)N1CCc2c([nH]c3ccc(Cl)cc23)[C@@H]1c1ccc(OC[C@H]2COC(C)(C)O2)cc1` [Compound 1226] cannot be ordered by EC50: < 8 nM for the first, < 8 nM for the second.

`CC1(C)OC[C@H](CCOc2ccc([C@H]3c4[nH]c5ccc(Cl)cc5c4CCN3C(=O)Oc3ccc(Cl)cc3)cc2)O1` [Compound 1203] and `CC1(C)OC[C@H](COc2ccc([C@H]3c4[nH]c5ccc(Cl)cc5c4CCN3C(=O)Oc3ccc(Cl)cc3)cc2)O1` [Compound 1227] cannot be ordered by EC50: < 8 nM for the first, < 8 nM for the second.

`CCOC(=O)N1CCc2c([nH]c3ccc(Cl)cc23)[C@@H]1c1ccc(OCC2COC(C)(C)OC2)cc1` [Compound 1206] and `CCOC(=O)N1CCc2c([nH]c3ccc(Cl)cc23)[C@@H]1c1ccc(OC[C@@H]2COC(C)(C)O2)cc1` [Compound 1261] cannot be ordered by EC50: < 8 nM for the first, < 8 nM for the second.

First: CCOC(=O)N1CCc2c([nH]c3ccc(Cl)cc23)C1c1ccc(OCC(CO)CO)cc1 (centres unmarked) [Compound 1208]
Second: CCOC(=O)N1CCc2c([nH]c3ccc(Cl)cc23)[C@@H]1c1ccc(OC[C@H](O)CO)cc1 [Compound 1221]
The EC50 of the first is higher: 8 to 40 nM for the first, < 8 nM for the second.

Compared with `O=C(Oc1ccc(Cl)cc1)N1CCc2c([nH]c3ccc(Cl)cc23)[C@@H]1c1ccc(OCC(CO)CO)cc1` [Compound 1209], `O=C(Oc1ccc(Cl)cc1)N1CCc2c([nH]c3ccc(Cl)cc23)C1c1ccc(OC(CO)CO)cc1` (centres unmarked) [Compound 1231] is higher in EC50: < 8 nM for the first, 8 to 40 nM for the second.

`CCOC(=O)N1CCc2c([nH]c3ccc(Cl)cc23)C1c1ccc(OCC(N)=O)cc1` (centres unmarked) [Compound 1210] and `NC(=O)COc1ccc(C2c3[nH]c4ccc(Cl)cc4c3CCN2C(=O)OCCF)cc1` (centres unmarked) [Compound 1211] fall in the same range of EC50: 8 to 40 nM for the first, 8 to 40 nM for the second.

First: CC#CCOC(=O)N1CCc2c([nH]c3ccc(Cl)cc23)C1c1ccc(OCC(N)=O)cc1 (centres unmarked) [Compound 1212]
Second: C=CCOc1ccc([C@H]2c3[nH]c4ccc(Cl)cc4c3CCN2C(=O)OCC)cc1 [Compound 1217]
The EC50 of the first is higher: 8 to 40 nM for the first, < 8 nM for the second.

`NC(=O)COc1ccc(C2c3[nH]c4ccc(Cl)cc4c3CCN2C(=O)Oc2ccc(Br)cc2)cc1` (centres unmarked) [Compound 1214] and `NC(=O)COc1ccc(C2c3[nH]c4ccc(Cl)cc4c3CCN2C(=O)Oc2ccc(F)cc2)cc1` (centres unmarked) [Compound 1215] fall in the same range of EC50: 8 to 40 nM for the first, 8 to 40 nM for the second.

Compared with `CCOC(=O)N1CCc2c([nH]c3ccc(Cl)cc23)[C@@H]1c1ccc(O)cc1` [Compound 1218], `CCOC(=O)N1CCc2c([nH]c3ccc(Cl)cc23)[C@@H]1c1ccc(OCCCO)cc1` [Compound 1251] is lower in EC50: 8 to 40 nM for the first, < 8 nM for the second.

Compared with `Clc1ccc2[nH]c3c(c2c1)CCNC3c1ccc(OC2CCOCC2)cc1` (centres unmarked) [Compound 1220], `O=C(OC1CCCC1)N1CCc2c([nH]c3ccc(Cl)cc23)[C@@H]1c1ccc(OC2CCOCC2)cc1` [Compound 1253] is lower in EC50: 40 to 200 nM for the first, < 8 nM for the second. The second is the more potent here.

First: CCOC(=O)N1CCc2c([nH]c3ccc(Cl)cc23)[C@@H]1c1ccc(OC[C@@H](O)CO)cc1 [Compound 1222]
Second: CCOC(=O)N1CCc2c([nH]c3ccc(Cl)cc23)[C@@H]1c1ccc(OCCC(O)CNC(C)=O)cc1 (some centres unmarked) [Compound 1270]
The EC50 of the first is lower: < 8 nM for the first, 8 to 40 nM for the second. The first is the more potent here.

`CCOC(COc1ccc(C2c3[nH]c4ccc(Cl)cc4c3CCN2C(=O)Oc2ccc(Cl)cc2)cc1)OCC` (centres unmarked) [Compound 1228] and `CCCN(CCC)CCCOc1ccc([C@H]2c3[nH]c4ccc(Cl)cc4c3CCN2C(=O)Oc2ccc(Cl)cc2)cc1` [Compound 1234] cannot be ordered by EC50: < 8 nM for the first, < 8 nM for the second.

`CCCN(CCC)CCCOc1ccc([C@H]2c3[nH]c4ccc(Cl)cc4c3CCN2C(=O)OCC)cc1` [Compound 1233] and `CCOC(=O)N1CCc2c([nH]c3ccc(Cl)cc23)[C@@H]1c1ccc(OCCC(O)CN(CCO)CCO)cc1` (some centres unmarked) [Compound 1273] fall in the same range of EC50: 8 to 40 nM for the first, 8 to 40 nM for the second.

`O=C(Oc1ccc(Cl)cc1)N1CCc2c([nH]c3ccc(Cl)cc23)[C@@H]1c1ccc(OCCCNC2CCCC2)cc1` [Compound 1235] and `CCOC(=O)N1CCc2c([nH]c3ccc(Cl)cc23)[C@@H]1c1ccc(OCCCNC2CCCC2)cc1` [Compound 1236] fall in the same range of EC50: 8 to 40 nM for the first, 8 to 40 nM for the second.

First: C=CCOc1ccc([C@H]2c3[nH]c4ccc(Cl)cc4c3CCN2c2ncccn2)cc1 [Compound 1237]
Second: Clc1ccc2[nH]c3c(c2c1)CCN(c1ncccn1)[C@H]3c1ccc(OC[C@@H]2CO2)cc1 [Compound 1245]
The EC50 of the first is lower: < 8 nM for the first, 8 to 40 nM for the second.

`Oc1ccc([C@H]2c3[nH]c4ccc(Cl)cc4c3CCN2c2ncccn2)cc1` [Compound 1241] and `Clc1ccc2[nH]c3c(c2c1)CCN(c1ncccn1)[C@H]3c1ccc(OC[C@H]2CO2)cc1` [Compound 1246] fall in the same range of EC50: 8 to 40 nM for the first, 8 to 40 nM for the second.

`CC1(C)OCC(COc2ccc([C@H]3c4[nH]c5ccc(Cl)cc5c4CCN3c3ncccn3)cc2)CO1` [Compound 1242] and `CC1(C)OC[C@H](CCOc2ccc([C@H]3c4[nH]c5ccc(Cl)cc5c4CCN3c3ncccn3)cc2)O1` [Compound 1244] cannot be ordered by EC50: < 8 nM for the first, < 8 nM for the second.

First: OCC(CO)COc1ccc(C2c3[nH]c4ccc(Cl)cc4c3CCN2c2ncccn2)cc1 (centres unmarked) [Compound 1243]
Second: O[C@H](COc1ccc([C@H]2c3[nH]c4ccc(Cl)cc4c3CCN2c2ncccn2)cc1)CN1CCOCC1 [Compound 1249]
The EC50 of the first is higher: 8 to 40 nM for the first, < 8 nM for the second.

First: COc1ccc(C2c3[nH]c4ccc(Cl)cc4c3CCN2C(N)=S)cc1 (centres unmarked) [Compound 1247]
Second: CCOC(=O)N1CCc2c([nH]c3ccc(Cl)cc23)C1c1ccc(OC)cc1F (centres unmarked) [Compound 1268]
The EC50 of the first is higher: 200 to 1000 nM for the first, < 8 nM for the second. The second is the more potent here.

`O[C@@H](COc1ccc([C@H]2c3[nH]c4ccc(Cl)cc4c3CCN2c2ncccn2)cc1)CN1CCOCC1` [Compound 1254] and `CCOC(=O)N1CCc2c([nH]c3ccc(Cl)cc23)[C@@H]1c1ccc(OCCC(O)CN2CCOCC2)cc1` (some centres unmarked) [Compound 1272] cannot be ordered by EC50: < 8 nM for the first, < 8 nM for the second.

First: O=C(Oc1ccc(Cl)cc1)N1CCc2c([nH]c3ccc(Cl)cc23)[C@@H]1c1ccc(OCCCNC(CO)(CO)CO)cc1 [Compound 1255]
Second: O=C(Oc1ccc(Cl)cc1)N1CCc2c([nH]c3ccc(Cl)cc23)[C@@H]1c1ccc(OCCC(O)CN(CCO)CCO)cc1 (some centres unmarked) [Compound 1280]
The EC50 of the first is higher: 40 to 200 nM for the first, 8 to 40 nM for the second.

`CC1(C)OC[C@@H](COc2ccc([C@H]3c4[nH]c5ccc(Cl)cc5c4CCN3C(=O)Oc3ccc(Cl)cc3)cc2)O1` [Compound 1260] and `O=C(Oc1ccc(Cl)cc1)N1CCc2c([nH]c3ccc(Cl)cc23)[C@@H]1c1ccc(OCCC(O)CN2CCOCC2)cc1` (some centres unmarked) [Compound 1279] cannot be ordered by EC50: < 8 nM for the first, < 8 nM for the second.

Compared with `C=CCOc1ccc([C@H]2c3[nH]c4ccc(Cl)cc4c3CCN2C(=O)OC2CCCC2)cc1` [Compound 1262], `CCOC(=O)N1CCc2c([nH]c3ccc(Cl)cc23)[C@@H]1c1ccc(OCCCNC2CC2)cc1` [Compound 1264] is higher in EC50: < 8 nM for the first, 8 to 40 nM for the second. The first is the more potent here.

First: CCOC(=O)N1CCc2c([nH]c3ccc(Cl)cc23)[C@@H]1c1ccc(OCCC(O)CNC(=O)COC)cc1 (some centres unmarked) [Compound 1271]
Second: CCOC(=O)N1CCc2c([nH]c3ccc(Cl)cc23)[C@@H]1c1ccc(OCCC(O)Cn2ccnn2)cc1 (some centres unmarked) [Compound 1274]
The EC50 of the first is higher: 8 to 40 nM for the first, < 8 nM for the second.

`CCOC(=O)N1CCc2c([nH]c3ccc(Cl)cc23)[C@@H]1c1ccc(OCCC(O)Cn2nccn2)cc1` (some centres unmarked) [Compound 1275] was tested, and the EC50 was < 8 nM.
